Assay results taken from ChEMBL document CHEMBL1157613, “Salicylic acid based small molecule inhibitor for the oncogenic Src homology-2 domain containing protein tyrosine phosphatase-2 (SHP2)” (J Med Chem, 2010).
Activity calls are given as the source filed them. The calls are words filed in the database; no cut-off is given here.

Key:
[1] = target: T1, Tyrosine-protein phosphatase non-receptor type 7 (Homo sapiens, UniProt P35236); experiment: Inhibition of HePTP expressed in Escherichia coli assessed as inhibition of p-nitrophenyl phosphate hydrolysis at pH 7 by spectrophotometry
T1 sequence (P35236 whole entry): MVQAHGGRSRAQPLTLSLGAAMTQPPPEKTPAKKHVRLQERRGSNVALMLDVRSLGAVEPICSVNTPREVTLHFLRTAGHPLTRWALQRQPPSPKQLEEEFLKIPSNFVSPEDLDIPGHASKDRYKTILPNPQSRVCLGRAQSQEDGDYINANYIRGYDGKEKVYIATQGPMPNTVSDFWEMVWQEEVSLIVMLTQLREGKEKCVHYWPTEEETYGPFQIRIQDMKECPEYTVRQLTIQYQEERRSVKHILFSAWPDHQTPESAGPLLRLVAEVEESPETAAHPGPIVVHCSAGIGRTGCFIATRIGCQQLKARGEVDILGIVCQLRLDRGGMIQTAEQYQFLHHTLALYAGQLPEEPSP

[2] = target: T2, Low molecular weight phosphotyrosine protein phosphatase (Homo sapiens, UniProt P24666); experiment: Inhibition of LMWPTP expressed in Escherichia coli assessed as inhibition of p-nitrophenyl phosphate hydrolysis at pH 7 by spectrophotometry
T2 sequence (P24666 whole entry): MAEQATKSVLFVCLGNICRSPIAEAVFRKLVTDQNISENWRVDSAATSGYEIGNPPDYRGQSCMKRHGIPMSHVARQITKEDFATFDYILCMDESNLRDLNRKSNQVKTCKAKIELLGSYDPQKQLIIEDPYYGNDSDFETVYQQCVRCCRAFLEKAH

[3] = target: T3, Receptor-type tyrosine-protein phosphatase C (Homo sapiens, UniProt P08575); experiment: Inhibition of CD45 expressed in Escherichia coli assessed as inhibition of p-nitrophenyl phosphate hydrolysis at pH 7 by spectrophotometry
T3 sequence (P08575 whole entry): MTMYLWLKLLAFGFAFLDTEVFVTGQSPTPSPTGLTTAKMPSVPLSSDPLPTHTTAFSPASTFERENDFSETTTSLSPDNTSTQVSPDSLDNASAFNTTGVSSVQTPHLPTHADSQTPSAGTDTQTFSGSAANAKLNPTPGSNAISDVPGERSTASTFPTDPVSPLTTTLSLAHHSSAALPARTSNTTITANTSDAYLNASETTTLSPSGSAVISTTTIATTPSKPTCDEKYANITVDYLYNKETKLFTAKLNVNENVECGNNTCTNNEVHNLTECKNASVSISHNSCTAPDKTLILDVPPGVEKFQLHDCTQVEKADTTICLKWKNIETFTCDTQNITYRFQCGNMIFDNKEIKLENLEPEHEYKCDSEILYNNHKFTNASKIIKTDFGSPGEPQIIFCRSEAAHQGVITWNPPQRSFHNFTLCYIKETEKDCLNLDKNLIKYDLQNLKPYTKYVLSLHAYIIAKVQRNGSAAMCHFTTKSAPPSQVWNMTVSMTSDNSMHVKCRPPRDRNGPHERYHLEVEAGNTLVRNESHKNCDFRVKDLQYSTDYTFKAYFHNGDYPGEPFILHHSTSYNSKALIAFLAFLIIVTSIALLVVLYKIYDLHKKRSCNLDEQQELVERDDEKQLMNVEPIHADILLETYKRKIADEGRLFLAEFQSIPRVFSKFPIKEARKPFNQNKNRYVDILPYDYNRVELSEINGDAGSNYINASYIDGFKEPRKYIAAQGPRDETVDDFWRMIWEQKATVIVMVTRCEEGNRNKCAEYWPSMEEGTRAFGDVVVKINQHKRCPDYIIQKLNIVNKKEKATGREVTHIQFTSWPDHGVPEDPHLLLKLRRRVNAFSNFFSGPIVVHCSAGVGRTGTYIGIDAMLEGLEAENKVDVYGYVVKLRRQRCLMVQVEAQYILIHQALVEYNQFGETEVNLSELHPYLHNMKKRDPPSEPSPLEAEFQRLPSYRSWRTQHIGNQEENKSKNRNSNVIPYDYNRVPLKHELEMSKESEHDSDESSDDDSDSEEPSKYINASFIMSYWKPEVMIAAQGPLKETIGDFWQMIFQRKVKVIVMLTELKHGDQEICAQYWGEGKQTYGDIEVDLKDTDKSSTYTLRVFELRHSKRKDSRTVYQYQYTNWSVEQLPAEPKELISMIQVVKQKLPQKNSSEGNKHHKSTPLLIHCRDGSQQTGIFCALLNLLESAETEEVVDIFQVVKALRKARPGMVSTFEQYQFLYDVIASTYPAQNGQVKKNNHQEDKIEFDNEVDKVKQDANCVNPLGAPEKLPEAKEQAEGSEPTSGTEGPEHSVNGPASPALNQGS

[4] = target: T4, Tyrosine-protein phosphatase non-receptor type 11 (Mus musculus) (UniProt P35235); experiment: Inhibition of SHP2-dependent ERK1/2 activation in EGF-stimulated mouse NIH/3T3 cells assessed as phosphorylated ERK1/2 level at 10 uM treated for 3 hrs before EGF challenge measured after 5 to 15 mins of EGF stimulation by immunoblot analysis; format: cell-based; details: NIH3T3
T4 sequence (whole entry): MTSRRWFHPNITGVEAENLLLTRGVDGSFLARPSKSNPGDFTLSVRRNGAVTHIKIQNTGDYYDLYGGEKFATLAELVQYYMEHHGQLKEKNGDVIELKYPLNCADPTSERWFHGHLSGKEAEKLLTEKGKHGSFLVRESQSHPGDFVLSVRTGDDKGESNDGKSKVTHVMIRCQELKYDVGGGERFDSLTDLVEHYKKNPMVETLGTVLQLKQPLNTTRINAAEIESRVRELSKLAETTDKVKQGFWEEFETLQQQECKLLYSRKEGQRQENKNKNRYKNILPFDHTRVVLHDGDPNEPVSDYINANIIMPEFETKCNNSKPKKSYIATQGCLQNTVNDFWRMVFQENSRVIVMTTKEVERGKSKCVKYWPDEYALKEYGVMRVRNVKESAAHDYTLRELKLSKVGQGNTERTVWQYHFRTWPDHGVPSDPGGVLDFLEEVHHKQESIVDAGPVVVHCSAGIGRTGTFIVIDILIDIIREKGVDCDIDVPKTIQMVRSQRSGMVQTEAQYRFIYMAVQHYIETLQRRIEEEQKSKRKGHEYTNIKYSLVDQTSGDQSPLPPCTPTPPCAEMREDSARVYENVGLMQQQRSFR

[5] = target: Dual specificity protein phosphatase 3 (Homo sapiens, UniProt P51452); experiment: Inhibition of VHR expressed in Escherichia coli assessed as inhibition of p-nitrophenyl phosphate hydrolysis at pH 7 by spectrophotometry
[6] = target: Receptor-type tyrosine-protein phosphatase F (Homo sapiens, UniProt P10586); experiment: Inhibition of LAR expressed in Escherichia coli assessed as inhibition of p-nitrophenyl phosphate hydrolysis at pH 7 by spectrophotometry
Sequence of Receptor-type tyrosine-protein phosphatase F (P10586 whole entry): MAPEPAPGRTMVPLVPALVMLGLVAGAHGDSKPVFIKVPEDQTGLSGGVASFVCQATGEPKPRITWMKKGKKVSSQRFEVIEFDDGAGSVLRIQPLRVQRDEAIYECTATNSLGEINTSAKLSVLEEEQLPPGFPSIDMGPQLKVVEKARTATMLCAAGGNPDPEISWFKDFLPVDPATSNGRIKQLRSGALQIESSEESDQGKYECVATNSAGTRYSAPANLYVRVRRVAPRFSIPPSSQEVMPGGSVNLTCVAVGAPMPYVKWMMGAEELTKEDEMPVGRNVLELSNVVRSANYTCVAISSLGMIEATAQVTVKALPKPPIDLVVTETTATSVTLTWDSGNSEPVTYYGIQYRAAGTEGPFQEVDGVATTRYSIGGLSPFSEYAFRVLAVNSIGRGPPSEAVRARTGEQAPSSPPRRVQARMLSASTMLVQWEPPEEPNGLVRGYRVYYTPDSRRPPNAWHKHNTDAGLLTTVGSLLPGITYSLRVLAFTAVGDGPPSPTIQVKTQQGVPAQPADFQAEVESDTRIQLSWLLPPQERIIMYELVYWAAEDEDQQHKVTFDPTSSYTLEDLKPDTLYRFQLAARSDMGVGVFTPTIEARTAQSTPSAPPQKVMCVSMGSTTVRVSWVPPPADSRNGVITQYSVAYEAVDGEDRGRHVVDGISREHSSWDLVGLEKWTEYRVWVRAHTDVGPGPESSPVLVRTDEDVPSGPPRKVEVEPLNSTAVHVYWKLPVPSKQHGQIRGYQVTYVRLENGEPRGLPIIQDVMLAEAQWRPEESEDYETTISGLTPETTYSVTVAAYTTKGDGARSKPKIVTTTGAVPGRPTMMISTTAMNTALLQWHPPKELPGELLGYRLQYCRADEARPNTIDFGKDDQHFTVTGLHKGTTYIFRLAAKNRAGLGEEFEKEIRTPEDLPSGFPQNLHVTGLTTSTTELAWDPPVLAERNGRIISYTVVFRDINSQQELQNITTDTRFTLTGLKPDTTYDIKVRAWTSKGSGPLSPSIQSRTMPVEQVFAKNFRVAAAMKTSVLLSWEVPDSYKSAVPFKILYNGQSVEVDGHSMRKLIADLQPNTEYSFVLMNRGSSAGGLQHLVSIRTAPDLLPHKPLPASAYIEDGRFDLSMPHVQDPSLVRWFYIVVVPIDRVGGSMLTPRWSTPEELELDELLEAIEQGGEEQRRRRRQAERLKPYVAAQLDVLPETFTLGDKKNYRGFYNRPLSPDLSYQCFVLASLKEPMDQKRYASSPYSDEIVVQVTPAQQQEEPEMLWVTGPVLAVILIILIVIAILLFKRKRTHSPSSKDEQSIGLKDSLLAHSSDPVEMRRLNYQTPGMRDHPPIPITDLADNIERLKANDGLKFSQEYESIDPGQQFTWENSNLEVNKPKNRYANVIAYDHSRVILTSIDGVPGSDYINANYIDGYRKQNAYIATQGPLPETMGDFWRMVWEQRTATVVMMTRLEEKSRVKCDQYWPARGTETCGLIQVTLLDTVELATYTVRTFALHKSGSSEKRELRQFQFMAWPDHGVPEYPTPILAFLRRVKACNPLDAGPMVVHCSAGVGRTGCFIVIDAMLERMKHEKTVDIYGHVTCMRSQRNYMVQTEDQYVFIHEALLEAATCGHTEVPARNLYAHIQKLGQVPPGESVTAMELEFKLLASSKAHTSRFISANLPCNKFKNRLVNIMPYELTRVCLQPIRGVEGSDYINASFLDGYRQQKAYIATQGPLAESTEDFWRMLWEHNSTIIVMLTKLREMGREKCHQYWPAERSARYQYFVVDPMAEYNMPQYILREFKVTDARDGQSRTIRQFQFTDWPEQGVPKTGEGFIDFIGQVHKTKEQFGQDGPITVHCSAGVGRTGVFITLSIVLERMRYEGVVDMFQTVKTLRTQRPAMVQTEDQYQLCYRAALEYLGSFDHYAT

Sequence of Dual specificity protein phosphatase 3 (P51452 whole entry): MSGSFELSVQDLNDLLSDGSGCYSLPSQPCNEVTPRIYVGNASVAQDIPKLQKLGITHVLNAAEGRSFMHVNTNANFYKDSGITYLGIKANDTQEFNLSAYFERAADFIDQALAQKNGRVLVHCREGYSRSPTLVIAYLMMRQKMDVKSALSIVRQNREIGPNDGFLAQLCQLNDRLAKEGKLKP

**Q.** With Cn1c(-c2ccccc2)c(-c2cn(CCC(=O)Nc3ccc(-c4ccccc4)cc3)nn2)c2cc(C(=O)O)c(O)cc21 as the molecule, how does the IC50 [1] read?
**A.** > 50 µM

**Q.** And the IC50 [2]?
**A.** 31.1 µM

**Q.** And the IC50 [3]?
**A.** 30 µM

**Q.** What about the inhibition [4] of the same molecule?
**A.** inactive

**Q.** And the IC50 [5]?
**A.** > 50 µM

**Q.** And the IC50 [6]?
**A.** > 50 µM
